Assay results from ChEMBL document CHEMBL6134829, “Targeting cysteine protease B to discover antileishmanial drugs: Directions and advances” (Eur J Med Chem, 2025).
Converted amounts (≈) assume the structure as drawn. *1 amine or outer side, *2 acyl side, *3 side chain or, on linkers, in order; H or OH if unused. Where a SMILES comes first, the peptide text is derived from it. [ ]: non-standard residue; d: D form. X1 = O=C1CC2C(=O)N(CCN[*:1])C(=O)C2C(c2ccc(C(=O)[*:2])cc2)C1; X2 = O=C1CC2C(=O)N(CCN[*:1])C(=O)C2C(C(=O)[*:2])C1; Cha = N[C@@H](CC1CCCCC1)C(=O)O

How the values were obtained:
[1] = Binding affinity to Leishmania mexicana CPB2.8 assessed as inhibition constant
[2] = Inhibition of Leishmania mexicana CPB2.8
Leishmania donovani = test: Antileishmanial activity against Leishmania donovani MHOM/IN/1983/AG83 axenic amastigotes assessed as inhibition of growth at 10 uM relative to control; assay type: functional; set-up: scale not given: the % may be the effect or the level left
[3] = Inhibition of Leishmania donovani cysteine protease
Leishmania major = test: Antileishmanial activity against Leishmania major promastigotes MHOM/IL/81/FE/BN; assay type: functional, organism-based
Leishmania amazonensis = test: Antileishmanial activity against Leishmania amazonensis promastigotes assessed as inhibition of parasite growth; assay type: functional, organism-based
Leishmania infantum = test: Antileishmanial activity against Leishmania infantum promastigote assessed as reduction in parasite growth after 72 hrs by MTT assay relative to control; assay type: functional; set-up: scale not given: the % may be the effect or the level left

| Structure (SMILES) | IC50 [2] | also measured |
| --- | --- | --- |
| CN(C)c1ccc(/C=C/C(=O)c2cc(Cl)ccc2O)cc1 | 3970 nM | Ki [1]: 5470 nM |
| CCOc1cc(/C=C2\SC(=O)NC2=O)ccc1O | 1420 nM | Activity (Leishmania donovani): 100% |
| Oc1cccc(/C=N\c2cccc3c(/N=C/c4cccc(O)c4O)cccc23)c1O |  | IC50 [3]: 113000 nM |
| O=C(O)c1ccccc1N/N=C/c1ccc(/C=N/Nc2ccccc2C(=O)O)cc1 |  | IC50 [3]: 72000 nM |
| O=C(N[C@H](/C=C/S(=O)(=O)c1ccccc1)CCc1ccccc1)[C@H](Cc1ccccc1)NC(=O)N1CCOCC1 | 27 nM |  |
| CC(C)C[C@@H](NC(=O)OC(C)(C)C)C(=O)N1CCC[C@@H]1C(=O)N1[C@H](C(=O)OCc2ccccc2)[C@H]1C(=O)OCc1ccccc1 |  | IC50 (Leishmania major): 35400 nM |
| CC(C)C[C@H](NC(=O)OC(C)(C)C)C(=O)N1CCC[C@@H]1C(=O)N1[C@H](C(=O)OCc2ccccc2)[C@H]1C(=O)OCc1ccccc1 |  | IC50 (Leishmania major): 39600 nM |
| O=C(CN1C(=O)/C(=N\NC(=O)c2ccncc2)c2ccccc21)Nc1ccccc1 |  | IC50 [3]: 62600 nM |
| CC(C)C[C@H](NC(=O)OC(C)(C)C)C(=O)N1CCC[C@@H]1C(=O)N1[C@@H](C(=O)OCc2ccccc2)[C@@H]1C(=O)OCc1ccccc1 | 3800 nM |  |
| CC(C)(C)OC(=O)N[C@@H](Cc1cccc(Cl)c1)C(=O)NCC#N |  | Activity (Leishmania infantum): 35% |
| O=C1CC(c2ccc(O)c(-c3c(O)cc4c(c3O)C(=O)CC(c3ccc(O)cc3)O4)c2)Oc2cc(O)cc(O)c21 (stereo unspecified) | 2200 nM |  |
| Oc1cc(O)cc(/C=N/c2ccc(/N=C/c3ccc(O)cc3O)c(Cl)c2)c1 |  | IC50 [3]: 65300 nM |
| C[C@@H]1CCC2(C(=O)O)CC[C@]3(C)C(=CCC4[C@@]5(C)CCC(=O)C(C)(C)C5CC[C@]43C)C2[C@H]1C (stereo partly specified) | 3780 nM | Ki [1]: 1260 nM |
| O=C(N[C@@H](Cc1ccccc1)C(=O)c1noc(-c2ccccc2)n1)[C@H](Cc1ccccc1)NC(=O)N1CCOCC1 | 50 nM |  |
| NC(=S)N/N=C/c1c(-c2ccccc2)[nH]c2ccccc12 | 60 nM |  |
| O=C(N[C@@H](Cc1ccccc1)C(=O)c1cc(-c2ccccc2)on1)[C@H](Cc1ccccc1)NC(=O)N1CCOCC1 | 100 nM |  |
| O=C1CC(c2ccc(O)cc2)Oc2cc(O)c(-c3c(O)cc(O)c4c(=O)cc(-c5ccc(O)cc5)oc34)c(O)c21 (stereo unspecified) | 430 nM |  |
| CC(C)[C@H](NC(=O)c1ccc(C2CC(=O)CC3C(=O)N(CCNC(=O)[C@H](CC(=O)O)NC(=O)[C@@H](N)Cc4c[nH]c5ccccc45)C(=O)C32)cc1)C(=O)N[C@@H](CO)C(=O)N[C@@H](CCCCN)C(N)=O (stereo partly specified) (H-WD[X1]VSK-NH2) | 1700 nM |  |
| CC(C)[C@H](NC(=O)c1ccc(C2CC(=O)CC3C(=O)N(CCNC(=O)[C@H](Cc4c[nH]c5ccccc45)NC(=O)[C@@H](N)CC4CCCCC4)C(=O)C32)cc1)C(=O)N[C@H](C(=O)N[C@@H](Cc1ccccc1)C(N)=O)C(C)C (stereo partly specified) (H-[Cha]W[X1]VVF-NH2) | 450 nM |  |
| CC(C)(F)C[C@H](N[C@@H](c1ccc(-c2ccc(S(C)(=O)=O)cc2)cc1)C(F)(F)F)C(=O)NC1(C#N)CC1 [ODANACATIB] |  | Activity (Leishmania infantum): 90% |

Now from value to compound, other results behind:

| IC50 [2] | Structure (SMILES) | also measured |
| --- | --- | --- |
| 5230 nM | O=c1c(O)c(-c2ccc3c(c2)OCO3)oc2ccccc12 | Ki [1]: 7060 nM |
| 980 nM | O=C1NC(=O)/C(=C/c2ccc([N+](=O)[O-])cc2)S1 | Activity (Leishmania donovani): 93.98% |
| 2060 nM | COC(=O)c1ccc(NC(=O)CSc2nc3ccc(Cl)cc3n2Cc2cc(C)cc(C)c2)c(Cl)c1 | Ki [1]: 690 nM |
| 450 nM | COC(=O)c1ccc(NC(=O)CSc2nc3ccc(Cl)cc3n2S(=O)(=O)c2cc(C)cc(C)c2)c(Cl)c1 | Ki [1]: 150 nM |
| 4720 nM | COc1ccc(-c2oc3ccccc3c(=O)c2O)cc1 | Ki [1]: 7710 nM |
| 540 nM | COC(=O)c1ccc(NC(=O)CSc2nc3ccccc3n2S(=O)(=O)c2cc(C)cc(C)c2)cc1 | Ki [1]: 180 nM |
| 5200 nM | O=C1c2c(O)cc(O)cc2O[C@@H](c2ccc(O)cc2)[C@@H]1c1c(O)cc(O)c2c(=O)cc(-c3ccc(O)c(O)c3)oc12 | IC50 (Leishmania amazonensis): 95 µg/mL (≈ 171 µM) |
| 680 nM | Cc1cc(C)cc(S(=O)(=O)n2c(SCC(=O)Nc3ccccc3)nc3ccccc32)c1 | Ki [1]: 230 nM |
| 230 nM | CN1CCN(C(=O)N[C@@H](Cc2ccccc2)C(=O)N[C@@H](CCc2ccccc2)C(=O)c2cc(-c3ccccc3)on2)CC1 |  |
| 10 nM | NC(=O)N/N=c1\oc2ccccc2cc1-c1nc2ccccc2[nH]1 |  |
| 70 nM | COc1ccc(-c2ccc(/C=N/NC(N)=S)o2)cc1 |  |
| 2900 nM | CC(C)=CCOc1ccc(C(=O)c2ccc(O)cc2)c(O)c1 | Ki [1]: 4300 nM |
| 3700 nM | Cc1ccc(C(=O)[C@@]23C(=O)OC(=O)[C@]2(C)N(C)[C@]2(c4ccccc4)Sc4ccccc4[C@H]32)cc1 | Ki [1]: 1360 nM |
| 1100 nM | COc1ncccc1Nc1nc(C#N)nc(NC2CCCCC2)n1 |  |
| 1140 nM | COc1ccc2nc3cc(Cl)ccc3c(-n3c(=S)[nH][nH]c3=S)c2c1 | IC50 (Leishmania amazonensis): 6.57 µg/mL (≈ 17.5 µM) |
| 190 nM | O=C(N[C@@H](CCc1ccccc1)C(=O)c1cc(-c2ccccc2)on1)[C@H](Cc1ccccc1)NC(=O)N1CCOCC1 |  |
| 500 nM | CC(C)C[C@H](NC(=O)C1CC(=O)CC2C(=O)N(CCNC(=O)[C@H](Cc3ccccc3)NC(=O)[C@@H](N)Cc3c[nH]c4ccccc34)C(=O)C12)C(=O)N[C@@H](Cc1ccc(O)cc1)C(=O)N[C@@H](Cc1ccc(O)cc1)C(N)=O (stereo partly specified) (H-WF[X2]LYY-NH2) |  |
